Measured values from US9636418B2 (priority 2013, dated 2017).
Read-outs that look alike come from different tables or passages of the source.

Columns and labels:
Test in all cases: cell-based
hNav1.7 = hNav1.7 (Homo sapiens, UniProt Q15858); assay type: cell-based; conditions: PatchXpress, read-out: PX hNav1.7 Tonic IC50
hNav1.4 = hNav1.4 (Homo sapiens, UniProt P35499); conditions: for IC50: PatchXpress, read-out: PX hNav1.4 Tonic IC50
hNav1.5 = hNav1.5 (Homo sapiens, UniProt Q14524); conditions: for IC50: PatchXpress, read-out: PX hNav1.5 Tonic IC50
Chain of hNav1.5 (Q14524 whole entry): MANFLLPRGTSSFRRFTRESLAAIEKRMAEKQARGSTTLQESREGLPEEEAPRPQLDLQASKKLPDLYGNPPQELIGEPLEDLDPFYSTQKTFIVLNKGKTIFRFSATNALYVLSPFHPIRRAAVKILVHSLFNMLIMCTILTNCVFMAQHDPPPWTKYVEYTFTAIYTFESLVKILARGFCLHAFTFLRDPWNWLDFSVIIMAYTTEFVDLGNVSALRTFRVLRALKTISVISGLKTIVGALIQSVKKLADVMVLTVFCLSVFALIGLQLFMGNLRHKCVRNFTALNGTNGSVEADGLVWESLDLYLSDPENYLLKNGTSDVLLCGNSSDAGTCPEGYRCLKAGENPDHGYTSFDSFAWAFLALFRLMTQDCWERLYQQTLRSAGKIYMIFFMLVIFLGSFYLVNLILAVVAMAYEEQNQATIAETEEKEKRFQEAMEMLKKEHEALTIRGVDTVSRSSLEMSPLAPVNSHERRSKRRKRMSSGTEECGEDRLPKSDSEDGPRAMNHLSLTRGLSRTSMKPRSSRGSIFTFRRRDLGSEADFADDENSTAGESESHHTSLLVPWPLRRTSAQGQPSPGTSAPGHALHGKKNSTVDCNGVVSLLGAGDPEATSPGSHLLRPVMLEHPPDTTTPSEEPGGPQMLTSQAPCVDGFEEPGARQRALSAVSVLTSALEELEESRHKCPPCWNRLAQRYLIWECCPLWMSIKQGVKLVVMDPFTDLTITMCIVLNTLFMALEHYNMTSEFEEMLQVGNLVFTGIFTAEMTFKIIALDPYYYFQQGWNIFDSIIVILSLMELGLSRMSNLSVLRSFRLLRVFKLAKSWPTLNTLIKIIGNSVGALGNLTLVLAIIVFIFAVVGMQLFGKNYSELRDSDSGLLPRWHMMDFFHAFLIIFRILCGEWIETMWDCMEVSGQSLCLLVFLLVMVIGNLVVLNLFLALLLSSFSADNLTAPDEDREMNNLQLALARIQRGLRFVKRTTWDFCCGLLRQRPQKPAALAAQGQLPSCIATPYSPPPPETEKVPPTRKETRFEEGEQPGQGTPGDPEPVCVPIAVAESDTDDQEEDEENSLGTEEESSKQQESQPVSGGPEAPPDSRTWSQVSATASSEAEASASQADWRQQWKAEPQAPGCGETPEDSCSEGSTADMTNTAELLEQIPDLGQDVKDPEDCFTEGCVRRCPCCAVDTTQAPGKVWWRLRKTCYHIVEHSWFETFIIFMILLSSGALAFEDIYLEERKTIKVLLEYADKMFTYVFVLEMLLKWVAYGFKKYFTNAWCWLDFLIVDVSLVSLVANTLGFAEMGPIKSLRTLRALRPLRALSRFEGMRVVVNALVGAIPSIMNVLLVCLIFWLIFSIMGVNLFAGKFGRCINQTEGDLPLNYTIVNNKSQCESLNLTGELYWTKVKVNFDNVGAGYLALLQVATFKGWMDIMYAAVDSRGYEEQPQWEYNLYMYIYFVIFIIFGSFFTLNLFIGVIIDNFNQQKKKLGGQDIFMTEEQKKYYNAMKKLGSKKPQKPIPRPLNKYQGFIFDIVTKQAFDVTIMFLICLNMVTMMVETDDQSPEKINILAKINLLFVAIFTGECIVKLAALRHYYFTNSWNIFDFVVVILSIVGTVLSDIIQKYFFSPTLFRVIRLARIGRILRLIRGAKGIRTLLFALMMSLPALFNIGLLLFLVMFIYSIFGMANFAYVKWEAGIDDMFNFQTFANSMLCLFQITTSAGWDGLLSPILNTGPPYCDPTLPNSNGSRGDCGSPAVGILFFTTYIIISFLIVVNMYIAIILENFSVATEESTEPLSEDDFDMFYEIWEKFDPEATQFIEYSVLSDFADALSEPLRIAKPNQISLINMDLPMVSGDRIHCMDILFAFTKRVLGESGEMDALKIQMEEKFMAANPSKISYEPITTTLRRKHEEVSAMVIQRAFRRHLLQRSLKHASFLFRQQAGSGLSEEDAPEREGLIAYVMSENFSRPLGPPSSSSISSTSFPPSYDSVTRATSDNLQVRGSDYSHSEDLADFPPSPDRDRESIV

[1] = * = at high concentrations compound would wash off slowly or not at all

Chain of hNav1.7 (Q15858 whole entry): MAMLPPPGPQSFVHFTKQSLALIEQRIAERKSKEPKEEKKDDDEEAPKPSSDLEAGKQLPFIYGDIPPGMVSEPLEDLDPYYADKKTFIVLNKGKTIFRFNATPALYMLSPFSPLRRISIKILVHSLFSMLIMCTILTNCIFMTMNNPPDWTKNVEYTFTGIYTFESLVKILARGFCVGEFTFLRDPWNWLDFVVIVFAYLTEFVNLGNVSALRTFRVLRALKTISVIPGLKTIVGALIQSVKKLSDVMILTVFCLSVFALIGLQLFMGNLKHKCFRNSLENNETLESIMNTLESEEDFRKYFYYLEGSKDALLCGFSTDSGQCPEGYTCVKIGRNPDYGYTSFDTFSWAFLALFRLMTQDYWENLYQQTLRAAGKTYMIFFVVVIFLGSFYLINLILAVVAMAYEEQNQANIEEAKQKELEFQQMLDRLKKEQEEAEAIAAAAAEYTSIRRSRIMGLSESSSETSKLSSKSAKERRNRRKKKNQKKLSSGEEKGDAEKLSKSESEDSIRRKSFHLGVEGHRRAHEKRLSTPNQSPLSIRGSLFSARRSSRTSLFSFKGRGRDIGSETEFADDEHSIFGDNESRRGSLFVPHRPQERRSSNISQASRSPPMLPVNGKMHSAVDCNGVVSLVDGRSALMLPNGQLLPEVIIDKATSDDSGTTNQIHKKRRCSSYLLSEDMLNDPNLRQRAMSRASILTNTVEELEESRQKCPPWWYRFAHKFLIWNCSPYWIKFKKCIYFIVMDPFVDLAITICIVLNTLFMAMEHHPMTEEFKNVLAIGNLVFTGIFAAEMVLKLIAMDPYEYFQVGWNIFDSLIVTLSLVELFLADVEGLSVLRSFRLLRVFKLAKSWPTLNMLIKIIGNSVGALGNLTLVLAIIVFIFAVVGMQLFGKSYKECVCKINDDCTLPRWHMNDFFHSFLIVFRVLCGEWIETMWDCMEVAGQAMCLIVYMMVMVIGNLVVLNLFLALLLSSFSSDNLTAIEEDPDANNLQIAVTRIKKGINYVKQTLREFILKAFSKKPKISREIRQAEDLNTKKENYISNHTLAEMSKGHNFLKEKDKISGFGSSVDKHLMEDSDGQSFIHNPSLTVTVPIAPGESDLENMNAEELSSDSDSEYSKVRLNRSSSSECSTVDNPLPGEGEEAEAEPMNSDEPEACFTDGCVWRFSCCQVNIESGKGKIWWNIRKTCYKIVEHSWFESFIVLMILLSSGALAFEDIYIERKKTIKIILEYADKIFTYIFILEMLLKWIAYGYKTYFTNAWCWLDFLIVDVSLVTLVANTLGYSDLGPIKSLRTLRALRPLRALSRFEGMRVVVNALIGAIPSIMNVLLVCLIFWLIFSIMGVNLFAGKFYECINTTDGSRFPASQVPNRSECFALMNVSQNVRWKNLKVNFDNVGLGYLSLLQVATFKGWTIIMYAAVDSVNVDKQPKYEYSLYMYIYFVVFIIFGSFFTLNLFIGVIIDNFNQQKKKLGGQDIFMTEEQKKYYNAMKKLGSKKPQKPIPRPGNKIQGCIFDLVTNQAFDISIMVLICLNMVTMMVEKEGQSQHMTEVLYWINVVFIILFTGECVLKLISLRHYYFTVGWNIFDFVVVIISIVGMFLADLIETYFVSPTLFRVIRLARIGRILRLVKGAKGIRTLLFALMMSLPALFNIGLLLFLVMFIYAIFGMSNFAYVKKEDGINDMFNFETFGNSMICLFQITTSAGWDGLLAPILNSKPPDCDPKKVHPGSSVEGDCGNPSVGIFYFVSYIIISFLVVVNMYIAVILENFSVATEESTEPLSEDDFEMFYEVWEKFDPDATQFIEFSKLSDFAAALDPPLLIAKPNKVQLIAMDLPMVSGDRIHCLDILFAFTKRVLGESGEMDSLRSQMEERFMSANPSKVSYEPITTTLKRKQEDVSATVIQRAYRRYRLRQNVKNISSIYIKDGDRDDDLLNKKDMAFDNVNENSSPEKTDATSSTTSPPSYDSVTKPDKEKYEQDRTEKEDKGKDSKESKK

Row | SMILES | IC50 (hNav1.7; tonic block) [nM] | IC50 (hNav1.4; tonic block) [nM] | IC50 (hNav1.5; tonic block) [nM] | IC50 (hNav1.7; [1]) [nM] | IC50 (hNav1.4; [1]) [nM] | Nav1.4/Nav1.7 (hNav1.4; ratio of PX IC50 values) | IC50 (hNav1.5; [1]) [nM] | Nav1.4/Nav1.7 (hNav1.4; ratio of PX tonic IC50 values) | Nav1.5/Nav1.7 (hNav1.5; ratio of PX tonic IC50 values)
1 | C#CC[C@H](N)C(=O)N[C@@H](Cc1ccc(O)cc1)C(=O)N[C@H]1CSSC[C@@H]2NC(=O)[C@@H]3CSSC[C@@H](C(=O)N[C@@H](CCCNC(=N)N)C(=O)N[C@@H](CCCCN)C(=O)N[C@@H](Cc4ccc(O)cc4)C(=O)N[C@H](C(N)=O)[C@@H](C)CC)NC(=O)[C@H](Cc4c[nH]c5ccccc45)NC(=O)[C@H](CC(C)C)NC(=O)[C@H](CCCCN)NC(=O)[C@H](CSSC[C@H](NC(=O)[C@H]([C@@H](C)O)NC(=O)[C@H](Cc4c[nH]c5ccccc45)NC(=O)[C@H](CCCC)NC(=O)[C@H](Cc4c[nH]c5ccccc45)NC(=O)[C@H](CCCCN)NC(=O)[C@H](CCC(N)=O)NC1=O)C(=O)N[C@@H](CC(=O)O)C(=O)N[C@@H](CO)C(=O)N[C@@H](CCCCN)C(=O)N[C@@H](CCCNC(=N)N)C(=O)N[C@@H](C)C(=O)N3)NC(=O)[C@H](CCC(=O)O)NC(=O)[C@H](CC(C)C)NC(=O)CNC(=O)[C@H](CCC(=O)O)NC2=O [compound 313] | 0.427 | 966 | 4370 |  |  |  |  |  | 
2 | CCCC[C@@H]1NC(=O)[C@H](Cc2c[nH]c3ccccc23)NC(=O)[C@H](CCCCN)NC(=O)[C@H](CCC(N)=O)NC(=O)[C@@H](NC(=O)[C@H](Cc2ccc(O)cc2)NC(=O)[C@@H](N)Cc2cn(CCOCCOCCOCCOCCOCCOCCOCCOCCOCCOCCOCCNC(=O)CSCc3ccccc3)nn2)CSSC[C@@H]2NC(=O)[C@@H]3CSSC[C@@H](C(=O)N[C@@H](CCCNC(=N)N)C(=O)N[C@@H](CCCCN)C(=O)N[C@H](C(=O)N[C@H](C(N)=O)[C@@H](C)CC)[C@@H](C)CC)NC(=O)[C@H](Cc4c[nH]c5ccccc45)NC(=O)[C@H](CC(C)C)NC(=O)[C@H](CCCCN)NC(=O)[C@H](CSSC[C@H](NC(=O)[C@H]([C@@H](C)O)NC(=O)[C@H](Cc4c[nH]c5ccccc45)NC1=O)C(=O)N[C@@H](CC(=O)O)C(=O)N[C@@H](CO)C(=O)N[C@@H](CCCCN)C(=O)N[C@@H](CCCNC(=N)N)C(=O)N[C@@H](C)C(=O)N3)NC(=O)[C@H](CCCNC(=N)N)NC(=O)[C@H](CC(C)C)NC(=O)CNC(=O)[C@H](CCC(=O)O)NC2=O [compound 427] |  |  |  | 1.4 | 13 | 9 | 1980 |  | 
3 | C#CC[C@H](N)C(=O)NCCOCCOCCOCCOCCC(=O)NCCCC[C@@H]1NC(=O)[C@@H]2CSSC[C@H](NC(=O)[C@H](Cc3ccc(O)cc3)NC(=O)[C@@H](N)CC#N)C(=O)N[C@@H](CCC(N)=O)C(=O)N[C@@H](CCCCN)C(=O)N[C@@H](Cc3c[nH]c4ccccc34)C(=O)N[C@@H](CCCC)C(=O)N[C@@H](Cc3c[nH]c4ccccc34)C(=O)N[C@@H]([C@@H](C)O)C(=O)N[C@H]3CSSC[C@H](NC(=O)[C@H](CCCNC(=N)N)NC(=O)[C@H](CC(C)C)NC(=O)CNC1=O)C(=O)N[C@@H](CCCCN)C(=O)N[C@@H](CC(C)C)C(=O)N[C@@H](Cc1c[nH]c4ccccc14)C(=O)N[C@H](C(=O)N[C@@H](CCCNC(=N)N)C(=O)N[C@@H](CCCCN)C(=O)N[C@H](C(=O)N[C@H](C(N)=O)[C@@H](C)CC)[C@@H](C)CC)CSSC[C@H](NC(=O)[C@H](C)NC(=O)[C@H](CCCNC(=N)N)NC(=O)[C@H](CCCCN)NC(=O)[C@H](CO)NC(=O)[C@H](CC(=O)O)NC3=O)C(=O)N2 [compound 385] | 3.64 |  |  |  |  |  |  | 0 | 0
4 | C#CC[C@@H]1NC(=O)[C@H](CC(=O)O)NC(=O)[C@@H]2CSSC[C@@H]3NC(=O)[C@H](CCCNC(=N)N)NC(=O)[C@H](CC(C)C)NC(=O)CNC(=O)[C@H](CCC(=O)O)NC(=O)[C@H](CSSC[C@H](NC(=O)[C@@H](N)Cc4ccc(O)cc4)C(=O)N[C@@H](CCC(N)=O)C(=O)N[C@@H](CCCCN)C(=O)N[C@@H](Cc4c[nH]c5ccccc45)C(=O)N[C@@H](CCCC)C(=O)N[C@@H](Cc4c[nH]c5ccccc45)C(=O)N[C@@H]([C@@H](C)O)C(=O)N2)NC(=O)[C@H](CSSC[C@@H](C(=O)N[C@@H](CCCNC(=N)N)C(=O)N[C@@H](CCCCN)C(=O)N[C@@H](CCC(=O)O)C(=O)N[C@H](C(N)=O)[C@@H](C)CC)NC(=O)[C@H](Cc2c[nH]c4ccccc24)NC(=O)[C@H](CC(C)C)NC(=O)[C@H](CCCCN)NC3=O)NC(=O)[C@H](C)NC(=O)[C@H](CCCNC(=N)N)NC(=O)[C@H](CCCCN)NC1=O [compound 330] | 0.763 | 222 | 5980 |  |  |  |  |  | 
5 | C#CC[C@H](N)C(=O)N[C@H]1CSSC[C@@H]2NC(=O)[C@@H]3CSSC[C@@H](C(=O)N[C@@H](CCCNC(=N)N)C(=O)N[C@@H](CCCCN)C(=O)N[C@H](C(=O)N[C@H](C(N)=O)[C@@H](C)CC)[C@@H](C)CC)NC(=O)[C@H](Cc4c[nH]c5ccccc45)NC(=O)[C@H](CC(C)C)NC(=O)[C@H](CCCCN)NC(=O)[C@H](CSSC[C@H](NC(=O)[C@H]([C@@H](C)O)NC(=O)[C@H](Cc4c[nH]c5ccccc45)NC(=O)[C@H](CCCC)NC(=O)[C@H](Cc4c[nH]c5ccccc45)NC(=O)[C@H](CCCCN)NC(=O)[C@H](CCC(N)=O)NC1=O)C(=O)N[C@@H](CC(=O)O)C(=O)N[C@@H](CO)C(=O)N[C@@H](CCCCN)C(=O)N[C@@H](CCCNC(=N)N)C(=O)N[C@@H](C)C(=O)N3)NC(=O)[C@H](CCC(=O)O)NC(=O)[C@H](CC(C)C)NC(=O)CNC(=O)[C@H](CCC(=O)O)NC2=O [compound 343] | 2.63 | 790 | 2660 |  |  |  |  | 300 | 
6 | CCCC[C@@H]1NC(=O)[C@H](Cc2c[nH]c3ccccc23)NC(=O)[C@H](CCCCN)NC(=O)[C@H](CCC(N)=O)NC(=O)[C@@H](NC(=O)[C@H](Cc2ccc(O)cc2)NC(=O)[C@@H](N)CCC(C)C)CSSC[C@@H]2NC(=O)[C@@H]3CSSC[C@@H](C(=O)N[C@@H](CCCNC(=N)N)C(=O)N[C@@H](CCCCN)C(=O)N[C@H](C(=O)N[C@H](C(N)=O)[C@@H](C)CC)[C@@H](C)CC)NC(=O)[C@H](Cc4c[nH]c5ccccc45)NC(=O)[C@H](CC(C)C)NC(=O)[C@H](CCCCN)NC(=O)[C@H](CSSC[C@H](NC(=O)[C@H]([C@@H](C)O)NC(=O)[C@H](Cc4c[nH]c5ccccc45)NC1=O)C(=O)N[C@@H](CC(=O)O)C(=O)N[C@@H](CO)C(=O)N[C@@H](CCCCN)C(=O)N[C@@H](CCCNC(=N)N)C(=O)N[C@@H](C)C(=O)N3)NC(=O)[C@H](CCCNC(=N)N)NC(=O)[C@H](CC(C)C)NC(=O)CNC(=O)[C@H](CCC(=O)O)NC2=O [compound 377] |  |  |  | 0.676 | 8.5 | 13 | 420 |  | 
7 | C#CC[C@@H]1NC(=O)[C@H](CCCNC(=N)N)NC(=O)[C@H](CCCCN)NC(=O)[C@H](CO)NC(=O)[C@H](CC(=O)O)NC(=O)[C@@H]2CSSC[C@@H]3NC(=O)[C@H](CCC(=O)O)NC(=O)[C@H](CC(C)C)NC(=O)CNC(=O)[C@H](CCC(=O)O)NC(=O)[C@H](CSSC[C@H](NC(=O)[C@@H](N)Cc4ccc(O)cc4)C(=O)N[C@@H](CCC(N)=O)C(=O)N[C@@H](CCCCN)C(=O)N[C@@H](Cc4c[nH]c5ccccc45)C(=O)N[C@@H](CCCC)C(=O)N[C@@H](Cc4c[nH]c5ccccc45)C(=O)N[C@@H]([C@@H](C)O)C(=O)N2)NC(=O)[C@H](CSSC[C@@H](C(=O)N[C@@H](CCCNC(=N)N)C(=O)N[C@@H](CCCCN)C(=O)N[C@@H](Cc2ccc(O)cc2)C(=O)N[C@H](C(N)=O)[C@@H](C)CC)NC(=O)[C@H](Cc2c[nH]c4ccccc24)NC(=O)[C@H](CC(C)C)NC(=O)[C@H](CCCCN)NC3=O)NC1=O [compound 316] | 1.76 | 707 | 3690 |  |  |  |  |  | 
8 | CCCC[C@@H]1NC(=O)[C@H](Cc2c[nH]c3ccccc23)NC(=O)[C@H](CCCCN)NC(=O)[C@H](CCC(N)=O)NC(=O)[C@@H](NC(=O)[C@H](Cc2ccc(O)cc2)NC(=O)[C@@H](N)CCc2ccccc2)CSSC[C@@H]2NC(=O)[C@@H]3CSSC[C@@H](C(=O)N[C@@H](CCCNC(=N)N)C(=O)N[C@@H](CCCCN)C(=O)N[C@H](C(=O)N[C@H](C(N)=O)[C@@H](C)CC)[C@@H](C)CC)NC(=O)[C@H](Cc4c[nH]c5ccccc45)NC(=O)[C@H](CC(C)C)NC(=O)[C@H](CCCCN)NC(=O)[C@H](CSSC[C@H](NC(=O)[C@H]([C@@H](C)O)NC(=O)[C@H](Cc4c[nH]c5ccccc45)NC1=O)C(=O)N[C@@H](CC(=O)O)C(=O)N[C@@H](CO)C(=O)N[C@@H](CCCCN)C(=O)N[C@@H](CCCNC(=N)N)C(=O)N[C@@H](C)C(=O)N3)NC(=O)[C@H](CCCNC(=N)N)NC(=O)[C@H](CC(C)C)NC(=O)CNC(=O)[C@H](CCC(=O)O)NC2=O [compound 379] |  |  |  | 0.476 | 4.8 | 10 | 440 |  | 
9 | CC[C@H](C)[C@H](NC(=O)[C@@H](NC(=O)[C@H](CCCCN)NC(=O)[C@H](CCCNC(=N)N)NC(=O)[C@@H]1CSSC[C@@H]2NC(=O)[C@H](C)NC(=O)[C@H](CCCNC(=N)N)NC(=O)[C@H](CCCCN)NC(=O)[C@H](CO)NC(=O)[C@H](CC(=O)O)NC(=O)[C@@H]3CSSC[C@H](NC(=O)[C@H](C)NC(=O)[C@H](CC(C)C)NC(=O)CNC(=O)[C@H](CCC(=O)O)NC(=O)[C@H](CSSC[C@H](NC(=O)[C@@H](N)Cc4ccc(O)cc4)C(=O)N[C@@H](CCC(N)=O)C(=O)N[C@@H](CCCCN)C(=O)N[C@@H](Cc4c[nH]c5ccccc45)C(=O)N[C@@H](CCSC)C(=O)N[C@@H](Cc4c[nH]c5ccccc45)C(=O)N[C@@H]([C@@H](C)O)C(=O)N3)NC2=O)C(=O)N[C@@H](CCCCN)C(=O)N[C@@H](CC(C)C)C(=O)N[C@@H](Cc2c[nH]c3ccccc23)C(=O)N1)[C@@H](C)CC)C(N)=O [compound 17] |  |  |  | 12 | 100 | 8 | 2750 |  | 
